# Assays:
# [1] = test system: cerebral blood flow in rats; assay: CO2 delivered into the lungs (systemic challenge); cerebral blood flow and arterial gases; format: in vivo; settings: rat, delivery into lungs
# From the text: (§1) Referring now to FIG. 3, it can be seen that the increase in cbf is attributable to focal intranasal or intra-oral effect rather than to systemic absorption of CO2. […] At this very high concentration, sufficient CO2 must be absorbed focally, intracranially, into the cerebral circulation to appear in measurable amounts in the systemic circulation. It cannot be concluded, therefore, that the increase in cbf is caused by a purely local action of CO2 rather than being secondary to systemic absorption. […] The effect on cbf during intranasal or intra oral delivery of CO2 with concomitant air inhalation into the lungs is therefore a focal effect on intranasal and intracranial vasculature rather than secondary to systemic absorption.
# [2] = test system: intubated patients; settings: hypercarbia from reduced ventilation rate; cited from earlier work
# [3] = test system: awake humans; assay: Tolerability of intranasal CO2 delivery in awake humans; format: in vivo, human
# From the text: While CO2 may be given to intubated, comatose individuals, the tolerability of intranasal gas delivery in awake humans has not previously been investigated. We have systematically tested the tolerability and effect of CO2 during intranasal delivery. CO2 elicits intense burning and stinging sensations which are intolerable above 16%. […] So individuals who are awake, such as stroke patients, these lower concentrations would be recommended. The current invention delivers CO2, or a combination of gases into the nasal or oral cavity but prevents its inhalation for the purposes of improving outcome from cerebral ischemia. […] In the embodiment with the anterior occlusion or “clip,” the CO2 could escape via a valve or exit tube or be suctioned out into a vacuumed container.
# [4] = test system: cerebral blood flow in rats; assay: Intranasal or intra-oral delivery of non-inhaled CO2 with air ventilation through a tracheostomy; cerebral blood flow and arterial gases; format: in vivo; settings: rat
# From the text: When CO2 s inhaled through the nose or mouth into the pulmonary circulation, it passes into the systemic blood stream through the alveoli. Once it reaches the brain, it diffuses out into the csf to exert its effect. As more CO2 is inhaled into the lungs and absorbed into the systemic circulation, arterial CO2 concentration (PaCO2) rises, hydrogen ions are produced and arterial pH falls, creating an acidosis. Acidosis leads to narcosis, and ultimately coma and death. Less severe signs of CO2 inhalation in non-intubated patients include headaches, sweating and hyperventilation. […] Inhalation is prevented by ventilating the animal through a tracheostomy with air while delivering the experimental gas intranasally (or intra orally).
# The increase is the same with 100% and with 50% gas concentration. […] Decline following discontinuation is somewhat slower than rise during delivery.
# as §1
# [5] = 50% CO2 intranasal, air into lungs
smiles,measurement,setting,value
"O=C=O [CO2, carbon dioxide]",arterial CO2 concentration when CO2 is delivered into the lungs,[1],rapidly increases
same,arterial pH when CO2 is delivered into the lungs,[1],falls
same,cbf when CO2 is delivered into the lungs,[1],increases sharply
same,increase in cbf per mm Hg increase in arterial CO2 over 45 mm,[2],4%
same,CO2 concentration above which burning and stinging sensations are intolerable,[3],above 16%
same,tolerability of sensations at 16% CO2 or below,"[3]; 16% or below, sensations abate over a few minutes",quite tolerable
same,"arterial pH, intranasal CO2 concentration 50%",[4]; [5],without any detectable increase in systemic PaCO2 or fall of pH
same,"cbf, intranasal CO2 concentration 50%",[4]; [5],doubles
same,"systemic PaCO2, intranasal CO2 concentration 50%",[4]; [5],without any detectable increase
same,"cbf, 100% CO2 delivered intranasally",[4]; 100% CO2 intranasal,also increases
same,"systemic CO2, 100% CO2 delivered intranasally, compared with lung delivery",[4]; 100% CO2 intranasal,far less increase
same,onset of cbf increase after start of delivery,"[4]; intranasal or intra-oral, non-inhaled",within seconds
same,cbf during intranasal or intra-oral delivery of CO2,"[4]; non-inhaled, increase the same with 100% and 50% gas concentration",more than doubled

# Source: patent US20130302445A1, “APPARATUS AND METHOD FOR TREATING CEREBRAL ISCHEMIA USING NON-INHALED CARBON DIOXIDE” (priority 2012, published 2013)
